In patent US11533912B2, “Use of cinnamate compounds in the control of fungal diseases of crops” (Institute of Plant Protection, Gansu Academy of …, priority 2019, dated 2022):
Read-outs that look alike come from different tables or passages of the source.

How the values were obtained:
Coniella diplodiella = assay: Ex vivo mycelial growth, growth rate method; format: cell-based; settings: 1 mg/mL; for inhibition at 1000 µg/mL: mycelial growth
[1] = system: Botryosphaeriana berengeriana; assay: Ex vivo mycelial growth, growth rate method (line 'Botryosphaeriana berengeriana', r23); format: cell-based; settings: Botryosphaeriana berengeriana (first line), 1 mg/mL; for inhibition at 1000 µg/mL: mycelial growth
Thanatephorus cucumeris = assay: Ex vivo mycelial growth, growth rate method; format: cell-based; settings: 1 mg/mL; for inhibition at 1000 µg/mL: mycelial growth
Exserohilum turcicum = assay: Ex vivo mycelial growth, growth rate method; format: cell-based; settings: 1 mg/mL; for inhibition at 1000 µg/mL: mycelial growth
Rhizoctonia solani = assay: Ex vivo mycelial growth, growth rate method; format: cell-based; settings: 1 mg/mL; for inhibition at 1000 µg/mL: mycelial growth
[2] = system: damping-off (P. aphanidermatum, P capsici); assay: In-vivo control of pepper damping-off in a greenhouse (sick soil); settings: 0.80 mg/mL, 200 mL liquor per pot
Experimental: (§1) (2) In-Vivo Determination Method • Sick soil of damping-off (P. aphanidermatum, P capsici) was collected from the fields of tomatoes, eggplants and peppers in solar greenhouse, and mixed evenly in equal proportion. Tomatoes (Variety: Song Tian Fen Yang Yang, 100 grains), eggplants (Variety: Lanza No. 2 F1 long eggplant, 100 grains), pepper (Longjiao 2 F1, 100 grains) were seeded quantitatively with the sick soil in pots (diameter: 15 cm) in a greenhouse, additionally with sterile vermiculite as the control (each 100 grains for determining the germination rate). […] The computational formula is as below: Mortality of Seedlings (%)=[number of survival seedlings in the seeded grains−number of seeded grains×(100%−germination rate)]/number of seeded grains×100; Control Effect (%)=(mortality of control seedlings−mortality of treated seedlings)/mortality of control seedlings×100.

F. verticillioide = assay: Ex vivo mycelial growth, growth rate method; format: cell-based; settings: 1 mg/mL; for inhibition at 1000 µg/mL: mycelial growth
Colletotrichum capsici = assay: Ex vivo mycelial growth, growth rate method; format: cell-based; settings: 1 mg/mL; for inhibition at 1000 µg/mL: Colletotrichum truncatum, mycelial growth
Valsa mali = assay: Ex vivo mycelial growth, growth rate method; format: cell-based; settings: 1 mg/mL; for inhibition at 1000 µg/mL: Cytospora mali, mycelial growth
Phytophthora capsici = assay: Ex vivo mycelial growth, growth rate method; format: cell-based; settings: for Average Diameter of the Colony / inhibition at 1000 µg/mL: Phytophthora capsici, 1 mg/mL; for inhibition at 1000 µg/mL: mycelial growth; for antifungal activity on Phytophthora capsici compared with hymexazol: supplementary determination results
Fusarium graminearum = assay: microbe, parasite or virus in culture; format: cell-based; settings: for Average Diameter of the Colony: Fusarium graminearum (first line), 1 mg/mL; for inhibition at 1000 µg/mL: Fusarium graminearum, read-out: Inhibition Rate
C. gossypii = assay: Ex vivo mycelial growth, growth rate method; format: cell-based; settings: 1 mg/mL; for inhibition at 1000 µg/mL: Colletotrichum gossypii, mycelial growth
[3] = system: F. oxysporum f. sp. vasinfectum; assay: Ex vivo mycelial growth, growth rate method; format: cell-based; settings: 1 mg/mL; for inhibition at 1000 µg/mL: Fusarium oxysporum, mycelial growth
Phytophthora infestans [4] = format: cell-based; settings: Phytophthora infestans (first line); 1 mg/mL
[5] = system: Botryosphaeria berengeriana; assay: Ex vivo mycelial growth, growth rate method (line 'Botryosphaeria berengeriana', r34); format: cell-based; settings: Botryosphaeria berengeriana (second line), 1 mg/mL; for inhibition at 1000 µg/mL: mycelial growth
Mycosphaerlla melonis = assay: Ex vivo mycelial growth, growth rate method; format: cell-based; settings: 1 mg/mL; for inhibition at 1000 µg/mL: mycelial growth
[6] = system: Gaeumannomyces graminis var. graminis and G. graminis var. tritici; assay: Ex vivo mycelial growth, growth rate method; format: cell-based; settings: 1 mg/mL; for inhibition at 1000 µg/mL: mycelial growth
zucchini powdery mildew = assay: Field efficiency test on zucchini powdery mildew; format: in vivo; settings: 0.50 mg/mL
[7] = system: Erysiphe cucurbitacearum or Sphaerotheca cucurbitae; assay: In-vivo control of zucchini powdery mildew in a greenhouse
Experimental: (2) In-Vivo Determination Method • Zucchini (Variety: Wuwei Xianglin extra-early 1st generation) were cultured in pots in a greenhouse, and inoculated with Erysiphe cucurbitacearum or Sphaerotheca cucurbitae at the stage of 3 to 4 leaves. […] Both sides of the leaves were sprayed evenly with a small hand-held sprayer so that the leaves were wetted by the liquor without loss. Applications were conducted every 7 days consecutively for 4 times. 10 days after the fourth application, the number of disease leaves at each grade of powdery mildew was investigated for the whole plant following the grading standard of 9 grades, to calculate the disease index and the control effect. The computational formula is as below: Disease index=[(Number of disease leaves at each grade×Corresponding grade value)/(Total number of investigated leaves×9)]×100; Control effect=(Disease index of the clear water control−Treated disease index)/Disease index of the clear water control×100.

E. polygoni = assay: In-vivo control of marrow bean powdery mildew in a greenhouse
Experimental: (2) In-Vivo Determination Method • Marrow bean (Variety: Thailand Jiadouwang) were cultured in pots in a greenhouse, and inoculated with E. polygoni at the stage of 4 leaves. […] Both sides of the leaves were sprayed evenly with a small hand-held sprayer so that the leaves were wetted by the liquor without loss. Applications were conducted every 7 days consecutively for 4 times. 10 days after the fourth application, the number of disease leaves at each grade of powdery mildew was investigated for the whole plant following the grading standard of 9 grades, to calculate the disease index and the control effect.

Pythium aphanidermatum = assay: Ex vivo mycelial growth, growth rate method; format: cell-based; settings: 1 mg/mL; for inhibition at 1000 µg/mL: mycelial growth
Pyricularia grisea = assay: microbe, parasite or virus in culture; format: cell-based; settings: for Average Diameter of the Colony: 1 mg/mL; for inhibition at 1000 µg/mL: read-out: Inhibition Rate
plant pathogenic fungi = assay: organism not typed; format: cell-based
F. oxysporum f. sp. lini = assay: Ex vivo mycelial growth, growth rate method; format: cell-based; settings: 1 mg/mL; for inhibition at 1000 µg/mL: Fusarium oxysporum, mycelial growth
Phytophthora infestans [8] = format: cell-based; settings: Phytophthora infestans (second line); 1 mg/mL
[9] = system: damping-off (P. aphanidermatum, P capsici); assay: In-vivo control of tomato damping-off in a greenhouse (sick soil); settings: 0.80 mg/mL, 200 mL liquor per pot
Experimental: as §1

Botrytis cinerea = assay: Ex vivo mycelial growth, growth rate method; format: cell-based; settings: 1 mg/mL; for inhibition at 1000 µg/mL: mycelial growth
[10] = system: Blumeria graminis f. sp. trilici; assay: In-vivo control of wheat powdery mildew in a greenhouse; set-up: species or system Blumeria graminis f. sp. trilici on winter wheat
F. graminearum = assay: microbe, parasite or virus in culture; format: cell-based; settings: for Average Diameter of the Colony: F. graminearum (second line), 1 mg/mL; for inhibition at 1000 µg/mL: Fusarium graminearum, read-out: Inhibition Rate
Sclerotinia sclerotiorum = assay: Ex vivo mycelial growth, growth rate method; format: cell-based; settings: 1 mg/mL; for inhibition at 1000 µg/mL: mycelial growth
E. cichoracearum = assay: Field efficiency test on cucumber powdery mildew; settings: 0.50 mg/mL (active ingredients)
Experimental: The first application was started on Jun. 15, 2018, and E. cichoracearum was inoculated on June 17th (the diseased leaves were harvested from the solar greenhouse near the military airfield at Xiaguanying town, Yuzhong County, moisturized in the greenhouse for 2 days, then shredded, and filtered over a gauze, the filtrate was sprayed onto both sides of the cucumber leaves with the cone nozzle of an electric sprayer for inoculation). The second, third and fourth applications were conducted on June 23rd, July 2nd, and July 9th respectively, the water consumptions of which were adjusted promptly according to the amount of water desired for spraying evenly onto both sides of the control leaves. 10 days after the fourth application, the number of disease leaves at each grade of powdery mildew was investigated following the grading standard of 9 grades, to calculate the disease index and the control effect.

[11] = system: damping-off (P. aphanidermatum, P capsici); assay: In-vivo control of eggplant damping-off in a greenhouse (sick soil); settings: 0.80 mg/mL, 200 mL liquor per pot
Experimental: as §1

For `CCOC(=O)/C=C/c1ccc(OC)c(F)c1` [ethyl 3-(3′-fluoro-4′-methoxyphenyl) acrylate], the “Average Diameter of the Colony” value (Coniella diplodiella) was 0.00 cm, the inhibition at 1000 µg/mL (Coniella diplodiella) was 100% and the “Average Diameter of the Colony” value [1] was 1.19 cm. For the same compound, the inhibition at 1000 µg/mL [1] was 79.1%, the “Average Diameter of the Colony” value (Thanatephorus cucumeris) was 2.05 cm and the inhibition at 1000 µg/mL (Thanatephorus cucumeris) was 76.2%. The “Average Diameter of the Colony” value (Exserohilum turcicum) was 0.10 cm, the inhibition at 1000 µg/mL (Exserohilum turcicum) was 98.4% and the “Average Diameter of the Colony” value (Rhizoctonia solani) was 0.00 cm. For the same compound, the inhibition at 1000 µg/mL (Rhizoctonia solani) was 100%, the “control effect on pepper damping-off” value [2] was 56.47% and the “Average Diameter of the Colony” value (F. verticillioide) was 2.34 cm. For the same compound, the inhibition at 1000 µg/mL (F. verticillioide) was 30.8%, the “Average Diameter of the Colony” value (Colletotrichum capsici) was 0.11 cm and the inhibition at 1000 µg/mL (Colletotrichum capsici) was 98.4%. For the same compound, the “Average Diameter of the Colony” value (Valsa mali) was 0.85 cm, the inhibition at 1000 µg/mL (Valsa mali) was 89.2% and the “Average Diameter of the Colony” value (Phytophthora capsici) was 1.26 cm. For the same compound, the inhibition at 1000 µg/mL (Phytophthora capsici) was 76.2%, the “antifungal activity on Phytophthora capsici compared with hymexazol” value (Phytophthora capsici) was “superior to that of the control agent, hymexazol” and the “Average Diameter of the Colony” value (Fusarium graminearum) was 3.26 cm. For the same compound, the inhibition at 1000 µg/mL (Fusarium graminearum) was 39.1%, the “Average Diameter of the Colony” value (C. gossypii) was 0.42 cm and the inhibition at 1000 µg/mL (C. gossypii) was 92.2%. For the same compound, the “Average Diameter of the Colony” value [3] was 4.45 cm, the inhibition at 1000 µg/mL [3] was 38.5% and the “Average Diameter of the Colony” value (Phytophthora infestans [4]) was 1.40 cm. For the same compound, the “Average Diameter of the Colony” value [5] was 1.72 cm, the inhibition at 1000 µg/mL [5] was 74.7% and the “Average Diameter of the Colony” value (Mycosphaerlla melonis) was 0.37 cm. For the same compound, the inhibition at 1000 µg/mL (Mycosphaerlla melonis) was 95.7%, the “Average Diameter of the Colony” value [6] was 2.29 cm and the inhibition at 1000 µg/mL [6] was 40%. The “Control Effect” value (zucchini powdery mildew) was 85.82%, the “Control Effect” value ([7]; 0.20 mg/mL) was 52.71% and the “Control Effect” value ([7]; 0.333 mg/mL) was 95.60%. The “Control Effect” value ([7]; 0.50 mg/mL) was 97.11%, the “Control Effect” value (E. polygoni; 0.10 mg/mL) was 77.26% and the “Control Effect” value (E. polygoni; 0.143 mg/mL) was 91.16%. For the same compound, the “Control Effect” value (E. polygoni; 0.20 mg/mL) was 94.51%, the “Average Diameter of the Colony” value (Pythium aphanidermatum) was 2.60 cm and the inhibition at 1000 µg/mL (Pythium aphanidermatum) was 61.2%. The “Average Diameter of the Colony” value (Pyricularia grisea) was 7.70 cm, the inhibition at 1000 µg/mL (Pyricularia grisea) was 14.4% and the inhibition at 1000 µg/mL (plant pathogenic fungi; read-out: inhibition rate on mycelial growth, range over 9 fungi) was 82 to 100%. The “Average Diameter of the Colony” value (F. oxysporum f. sp. lini) was 7.20 cm, the inhibition at 1000 µg/mL (F. oxysporum f. sp. lini) was 20% and the “Average Diameter of the Colony” value (Phytophthora infestans [8]) was 0.00 cm. For the same compound, the “control effect on tomato damping-off” value [9] was 51.02%, the “Average Diameter of the Colony” value (Botrytis cinerea) was 1.35 cm and the inhibition at 1000 µg/mL (Botrytis cinerea) was 82%. For the same compound, the “Control Effect” value ([10]; 0.143 mg/mL) was 64.75%, the “Control Effect” value ([10]; 0.20 mg/mL) was 67.60% and the “Average Diameter of the Colony” value (F. graminearum) was 2.77 cm. The inhibition at 1000 µg/mL (F. graminearum) was 67.8%, the “Average Diameter of the Colony” value (Sclerotinia sclerotiorum) was 2.58 cm and the inhibition at 1000 µg/mL (Sclerotinia sclerotiorum) was 70%. For the same compound, the “control effect on cucumber powdery mildew” value (E. cichoracearum) was 78.42%.
`CCOC(=O)/C=C/c1ccc2c(c1)OCO2` was tested, and the “Average Diameter of the Colony” value (Coniella diplodiella) was 0.00 cm, the inhibition at 1000 µg/mL (Coniella diplodiella) was 100% and the “Average Diameter of the Colony” value [1] was 4.20 cm. The inhibition at 1000 µg/mL [1] was 26.3%, the “Average Diameter of the Colony” value (Thanatephorus cucumeris) was 3.75 cm and the inhibition at 1000 µg/mL (Thanatephorus cucumeris) was 56.4%. For the same compound, the “Average Diameter of the Colony” value (Exserohilum turcicum) was 1.52 cm, the inhibition at 1000 µg/mL (Exserohilum turcicum) was 75.5% and the “Average Diameter of the Colony” value (Rhizoctonia solani) was 0.80 cm. For the same compound, the inhibition at 1000 µg/mL (Rhizoctonia solani) was 88.8%, the “control effect on pepper damping-off” value [2] was 52% and the “Average Diameter of the Colony” value (F. verticillioide) was 2.91 cm. For the same compound, the inhibition at 1000 µg/mL (F. verticillioide) was 13.9%, the “Average Diameter of the Colony” value (Colletotrichum capsici) was 1.49 cm and the inhibition at 1000 µg/mL (Colletotrichum capsici) was 78%. The “control effect on eggplant damping-off” value [11] was 53.63%, the “Average Diameter of the Colony” value (Valsa mali) was 0.00 cm and the inhibition at 1000 µg/mL (Valsa mali) was 100%. The “Average Diameter of the Colony” value (Phytophthora capsici) was 1.42 cm, the inhibition at 1000 µg/mL (Phytophthora capsici) was 73.2% and the “antifungal activity on Phytophthora capsici compared with hymexazol” value (Phytophthora capsici) was “superior to that of the control agent, hymexazol”. For the same compound, the “Average Diameter of the Colony” value (Fusarium graminearum) was 3.00 cm, the inhibition at 1000 µg/mL (Fusarium graminearum) was 43.9% and the “Average Diameter of the Colony” value (C. gossypii) was 1.74 cm. For the same compound, the inhibition at 1000 µg/mL (C. gossypii) was 67.8%, the “Average Diameter of the Colony” value [3] was 2.58 cm and the inhibition at 1000 µg/mL [3] was 64.4%. For the same compound, the “Average Diameter of the Colony” value (Phytophthora infestans [4]) was 2.01 cm, the “Average Diameter of the Colony” value [5] was 3.45 cm and the inhibition at 1000 µg/mL [5] was 49.3%. The “Average Diameter of the Colony” value (Mycosphaerlla melonis) was 0.75 cm, the inhibition at 1000 µg/mL (Mycosphaerlla melonis) was 91.3% and the “Average Diameter of the Colony” value [6] was 2.45 cm. The inhibition at 1000 µg/mL [6] was 65.7%, the “Control Effect” value (zucchini powdery mildew) was 85.56% and the “Control Effect” value ([7]; 0.20 mg/mL) was 77.06%. For the same compound, the “Control Effect” value ([7]; 0.333 mg/mL) was 96.21%, the “Control Effect” value ([7]; 0.50 mg/mL) was 97.93% and the “Control Effect” value (E. polygoni; 0.10 mg/mL) was 75.92%. For the same compound, the “Control Effect” value (E. polygoni; 0.143 mg/mL) was 95.20%, the “Control Effect” value (E. polygoni; 0.20 mg/mL) was 95.49% and the “Average Diameter of the Colony” value (Pythium aphanidermatum) was 2.60 cm. For the same compound, the inhibition at 1000 µg/mL (Pythium aphanidermatum) was 61.2%, the “Average Diameter of the Colony” value (Pyricularia grisea) was 2.70 cm and the inhibition at 1000 µg/mL (Pyricularia grisea) was 25.6%. For the same compound, the inhibition at 1000 µg/mL (plant pathogenic fungi; read-out: inhibition rate on mycelial growth, range over 5 fungi) was 88.8 to 100%, the “Average Diameter of the Colony” value (F. oxysporum f. sp. lini) was 6.97 cm and the inhibition at 1000 µg/mL (F. oxysporum f. sp. lini) was 22.6%. For the same compound, the “Average Diameter of the Colony” value (Phytophthora infestans [8]) was 0.00 cm, the “Average Diameter of the Colony” value (Botrytis cinerea) was 2.17 cm and the inhibition at 1000 µg/mL (Botrytis cinerea) was 71%. The “Control Effect” value ([10]; 0.143 mg/mL) was 74.28%, the “Control Effect” value ([10]; 0.20 mg/mL) was 77.65% and the “Average Diameter of the Colony” value (F. graminearum) was 1.73 cm. For the same compound, the inhibition at 1000 µg/mL (F. graminearum) was 79.9%, the “Average Diameter of the Colony” value (Sclerotinia sclerotiorum) was 4.71 cm and the inhibition at 1000 µg/mL (Sclerotinia sclerotiorum) was 45.2%. The “control effect on cucumber powdery mildew” value (E. cichoracearum) was 80.95%.
